This passage reports IC50 results from patent US20190119213A1, “OXO-PYRIDINE-DERIVATIVES AS FACTOR XIA INHIBITORS FOR THE TREATMENT OF THROMBOSIS” (BAYER PHARMA AKTIENGESELLSCHAFT, priority 2015, published 2019).

For one assay, the target named is T1, human factor XIa (Homo sapiens, UniProt P03951).
T1 construct: purchased Kordia
Nature of the assay: Measurement of FXIa inhibition (fluorogenic peptide substrate). Format: biochemical. To be noted: factor XIa from Kordia 0.45 nM; substrate Boc-Glu(OBzl)-Ala-Arg-AMC; 30 min at 22° C. The protocol:
The factor XIa inhibition of the inventive substances is determined using a biochemical test system which utilizes the reaction of a peptidic factor XIa substrate to determine the enzymatic activity of human factor XIa. Here, factor XIa cleaves from the peptic factor XIa substrate the C-terminal aminomethylcoumarin (AMC), the fluorescence of which is measured. The determinations are carried out in microtitre plates.
Test substances are dissolved in dimethyl sulphoxide and serially diluted in dimethyl sulphoxide (3000 μM to 0.0078 μM; resulting final concentrations in the test: 50 μM to 0.00013 μM). In each case 1 μl of the diluted substance solutions is placed into the wells of white microtitre plates from Greiner (384 wells). 20 μl of assay buffer (50 mM of Tris/HCl pH 7.4; 100 mM of sodium chloride; 5 mM of calcium chloride; 0.1% of bovine serum albumin) and 20 μl of factor XIa from Kordia (0.45 nM in assay buffer) are then added successively. After 15 min of incubation, the enzyme reaction is started by addition of 20 μl of the factor XIa substrate Boc-Glu(OBzl)-Ala-Arg-AMC dissolved in assay buffer (10 μM in assay buffer) from Bachem, the mixture is incubated at room temperature (22° C.) for 30 min and fluorescence is then measured (excitation: 360 nm, emission: 460 nm). The measured emissions of the test batches with test substance are compared to those of control batches without test substance (only dimethyl sulphoxide instead of test substance in dimethyl sulphoxide), and IC50 values are calculated from the concentration/activity relationships.

The target of a further assay is T2, human plasma kallikrein (Homo sapiens, UniProt P03952).
T2 construct: purchased Kordia
T2 sequence (P03952 391-638 limits assumed): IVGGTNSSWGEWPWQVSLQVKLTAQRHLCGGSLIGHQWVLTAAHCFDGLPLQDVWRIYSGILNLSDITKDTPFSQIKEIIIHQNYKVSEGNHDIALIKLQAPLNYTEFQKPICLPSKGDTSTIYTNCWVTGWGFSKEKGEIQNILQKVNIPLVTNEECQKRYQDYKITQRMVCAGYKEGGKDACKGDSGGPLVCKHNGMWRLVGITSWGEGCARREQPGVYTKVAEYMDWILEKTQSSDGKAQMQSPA
T2 sequence (P03952 20-390 partner limits assumed): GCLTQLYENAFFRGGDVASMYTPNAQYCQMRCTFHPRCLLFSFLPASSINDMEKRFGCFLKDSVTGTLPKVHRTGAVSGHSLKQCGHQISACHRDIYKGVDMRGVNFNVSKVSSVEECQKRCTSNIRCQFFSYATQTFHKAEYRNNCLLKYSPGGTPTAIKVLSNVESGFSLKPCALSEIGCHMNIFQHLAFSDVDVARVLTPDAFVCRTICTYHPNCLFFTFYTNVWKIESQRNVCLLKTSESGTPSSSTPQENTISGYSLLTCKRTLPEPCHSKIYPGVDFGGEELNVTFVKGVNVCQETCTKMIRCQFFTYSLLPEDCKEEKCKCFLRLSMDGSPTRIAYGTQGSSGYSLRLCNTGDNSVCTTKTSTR
Briefly: Determination of the plasma kallikrein activity (fluorogenic peptide substrate). It counts as biochemical. The settings on record: plasma kallikrein from Kordia 0.6 nM; substrate H-Pro-Phe-Arg-AMC; 30 min at 22° C. The protocol: To determine the plasma kallikrein inhibition of the substances according to the invention, a biochemical test system is used which utilizes the reaction of a peptidic plasma kallikrein substrate to determine the enzymatic activity of human plasma kallikrein. Here, plasma kallikrein cleaves from the peptic plasma kallikrein substrate the C-terminal aminomethylcoumarin (AMC), the fluorescence of which is measured. The determinations are carried out in microtitre plates.
Test substances are dissolved in dimethyl sulphoxide and serially diluted in dimethyl sulphoxide (3000 μM to 0.0078 μM; resulting final concentrations in the test: 50 μM to […] each case 1 μl of the diluted substance solutions is placed into the wells of white microtitre plates from Greiner (384 wells). 20 μl of assay buffer (50 mM Tris/HCl pH 7.4; 100 mM sodium chloride solution; 5 mM of calcium chloride solution; 0.1% of bovine serum albumin) and 20 μl of plasma kallikrein from Kordia (0.6 nM in assay buffer) are then added successively. After 15 min of incubation, the enzyme reaction is started by addition of 20 μl of the substrate H-Pro-Phe-Arg-AMC dissolved in assay buffer (10 μM in assay buffer) from Bachem, the mixture is incubated at room temperature (22° C.) for 30 min and fluorescence is then measured (excitation: 360 nm, emission: 460 nm). The measured emissions of the test batches with test substance are compared to those of control batches without test substance (only dimethyl sulphoxide instead of test substance in dimethyl sulphoxide), and IC50 values are calculated from the concentration/activity relationships.

T1 sequence (P03951 388-625 limits assumed): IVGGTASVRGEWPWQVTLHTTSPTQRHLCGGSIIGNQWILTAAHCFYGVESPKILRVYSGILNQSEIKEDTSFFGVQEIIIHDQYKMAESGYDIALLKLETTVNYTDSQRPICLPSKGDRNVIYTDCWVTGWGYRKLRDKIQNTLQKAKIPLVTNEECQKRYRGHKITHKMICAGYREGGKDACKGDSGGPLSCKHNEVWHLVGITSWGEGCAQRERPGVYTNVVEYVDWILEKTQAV
T1 sequence (P03951 19-387 partner limits assumed): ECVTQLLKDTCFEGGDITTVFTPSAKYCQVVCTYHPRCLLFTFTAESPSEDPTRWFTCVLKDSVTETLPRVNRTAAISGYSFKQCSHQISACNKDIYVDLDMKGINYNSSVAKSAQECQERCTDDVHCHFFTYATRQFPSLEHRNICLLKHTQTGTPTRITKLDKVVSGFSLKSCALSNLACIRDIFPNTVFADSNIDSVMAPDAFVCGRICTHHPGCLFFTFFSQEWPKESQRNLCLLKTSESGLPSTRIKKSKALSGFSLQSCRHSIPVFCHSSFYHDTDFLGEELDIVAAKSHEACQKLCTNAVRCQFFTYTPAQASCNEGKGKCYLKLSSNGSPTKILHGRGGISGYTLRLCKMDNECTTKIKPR

`COc1cn(C(CCOC2(C)CCC2)C(=O)Nc2ccc(C(=O)O)cc2)c(=O)cc1-c1cc(Cl)ccc1C#N` (racemic) [Example 9, 4-({2-[4-(5-Chloro-2-cyanophenyl)-5-methoxy-2-oxopyridin-1(2H)-yl]-4-[(1-methylcyclobutyl)oxy]butanoyl}amino)benzoic acid (racemate)]: the IC50 against human factor XIa is 1 nM; against human plasma kallikrein, 6.5 nM.

On to `COc1cn([C@@H](CCOC(C)(C)C)C(=O)Nc2ccc(C(=O)O)cc2)c(=O)cc1-c1cc(Cl)ccc1C#N` (single isomer, unassigned; enantiomer 2) [Example 6], for which the values for the IC50 against human factor XIa and against human plasma kallikrein were 0.3 nM and 2.2 nM, respectively.

As to `COc1cn(C(CCOC(C)(C)C)C(=O)Nc2ccc(C(=O)O)cc2)c(=O)cc1-c1cc(Cl)ccc1C#N` (racemic) [Example 5, 4-({4-tert-Butoxy-2-[4-(5-chloro-2-cyanophenyl)-5-methoxy-2-oxopyridin-1(2H)-yl]butanoyl}amino)benzoic acid (racemate)], the IC50 stood at 0.7 nM at human factor XIa and 3.9 nM against human plasma kallikrein.

Take `COc1cn(C(CCOC2CCC2)C(=O)Nc2ccc(C(=O)O)cc2)c(=O)cc1-c1cc(Cl)ccc1C#N` (racemic) [Example 3, 4-({2-[4-(5-Chloro-2-cyanophenyl)-5-methoxy-2-oxopyridin-1(2H)-yl]-4-(cyclobutyloxy)butanoyl}amino)benzoic acid (racemate)]: the IC50 against human factor XIa stood at 0.6 nM; against human plasma kallikrein it was 2.6 nM.

As to `COc1cn(C(CCOC2(C)CCC2)C(=O)Nc2ccc(C(=O)O)cc2)c(=O)cc1-c1cc(Cl)ccc1OC(F)F` (racemic) [Example 11, 4-[(2-{4-[5-Chloro-2-(difluoromethoxy)phenyl]-5-methoxy-2-oxopyridin-1(2H)-yl}-4-[(1-methylcyclobutyl)oxy]butanoyl)amino]benzoic acid (racemate)], the 50% inhibitory concentration (IC50) against human factor XIa was 2.2 nM; against human plasma kallikrein, 45 nM.

As for `COc1cn([C@@H](CCOC2(C)CCC2)C(=O)Nc2ccc(C(=O)O)cc2)c(=O)cc1-c1cc(Cl)ccc1OC(F)F` (single isomer, unassigned; enantiomer 2) [Example 12], the IC50 against human factor XIa stood at 1.5 nM; against human plasma kallikrein, 27 nM.

In the case of `COc1cn([C@@H](CCOC2CCC2)C(=O)Nc2ccc(C(=O)O)cc2)c(=O)cc1-c1cc(Cl)ccc1C#N` (single isomer, unassigned; enantiomer 2) [Example 4], the IC50 was found to be 0.4 nM against human factor XIa and 1.4 nM on human plasma kallikrein.

For the compound `COc1cn([C@@H](CCOC(C)C)C(=O)Nc2ccc(C(=O)O)cc2)c(=O)cc1-c1cc(Cl)ccc1C#N` (single isomer, unassigned; enantiomer 2) [Example 2], the IC50 came to 0.9 nM against human factor XIa and 4.8 nM on human plasma kallikrein.

For `COc1cn(C(CCOC(C)C)C(=O)Nc2ccc(C(=O)O)cc2)c(=O)cc1-c1cc(Cl)ccc1C#N` (racemic) [Example 1, 4-({2-[4-(5-Chloro-2-cyanophenyl)-5-methoxy-2-oxopyridin-1(2H)-yl]-4-isopropoxybutanoyl}-amino)benzoic acid (racemate)], the results for the IC50 on human factor XIa and against human plasma kallikrein were 1.2 nM and 5.6 nM, respectively.

Consider `COc1cn([C@@H](CCOC(C)(C)C)C(=O)Nc2ccc(C(=O)O)cc2)c(=O)cc1-c1cc(Cl)ccc1OC(F)F` (single isomer, unassigned; enantiomer 2) [Example 8], for which the IC50 was 1.5 nM at human factor XIa and 29 nM against human plasma kallikrein.

As to `COc1cn(C(CCOC(C)(C)C)C(=O)Nc2ccc(C(=O)O)cc2)c(=O)cc1-c1cc(Cl)ccc1OC(F)F` (racemic) [Example 7, 4-[(4-tert-Butoxy-2-{4-[5-chloro-2-(difluoromethoxy)phenyl]-5-methoxy-2-oxopyridin-1(2H)-yl}butanoyl)amino]benzoic acid (racemate)], the IC50 is 2.9 nM at human factor XIa and 38 nM against human plasma kallikrein.

On to `COc1cn([C@@H](CCOC2(C)CCC2)C(=O)Nc2ccc(C(=O)O)cc2)c(=O)cc1-c1cc(Cl)ccc1C#N` (single isomer, unassigned; enantiomer 2) [Example 10], for which the IC50 against human factor XIa was found to be 0.4 nM; on human plasma kallikrein, 2.4 nM.
